{
  "source": "patent US20260174867A1",
  "about": "“REDUCTION OF ADIPOSE TISSUE” (LEIOS THERAPEUTICS, INC., priority 2023, published 2026)",
  "key": {"human subjects": {"test_system": "human subjects", "details": "cited from earlier work"}, "fat tissue": {"test_system": "fat tissue", "assay": "Propylene glycol as co-solvent injected with polidocanol", "assay_type": "in vivo"}, "inguinal fat pad": {"test_system": "inguinal fat pad", "assay": "Inguinal fat pad mass after a single treatment of polidocanol", "assay_type": "in vivo", "details": "for reduction in inguinal fat pad mass: day 28 after a single treatment", "description": "For example, reductions in inguinal fat pad mass of 15% were found at day 28 after a single treatment of polidocanol at doses of 0.5% and 1.25%. […] Thus, in embodiments, the polidocanol is administered approximately once per month and/or at concentrations less than about 2.0%. The treatment may employ about 0.1 to 0.3 mL (e.g. 0.2 mL) of a polidocanol at a concentration provided herein. In embodiments, the polidocanol is a concentration of from about 0.5% and 1.25%. The administration may be via injection. In embodiments, the injection is at a spacing of about 0.2 to 0.8 cm apart across the inguinal fat pad. Thus, in embodiments, the polidocanol is administered approximately once per month and/or at concentrations less than 2.0%. The treatment may employ 0.1 to 0.3 mL (e.g., 0.2 mL) of a polidocanol at a concentration provided herein. In embodiments, the polidocanol is a concentration of from 0.5% and 1.25%. The administration may be via injection. In embodiments, the injection is at a spacing of 0.2 to 0.8 cm apart across the inguinal fat pad. In embodiments, the injection is at a spacing of about 0.5 cm apart across the inguinal fat pad."}, "[1]": {"details": "Kybella Label, spontaneous and elicited AEs, 1-week post-injection"}},
  "data": [
    {"compound": "C[C@H](CCC(=O)O)[C@H]1CC[C@H]2[C@@H]3CC[C@@H]4C[C@H](O)CC[C@]4(C)[C@H]3C[C@H](O)[C@]12C", "note": "[Kybella, deoxycholic acid]", "values": [
      {"measurement": "AE Proportions Post Treatment: Anesthesia (Numbness)", "setting": "human subjects; [1]", "value": 66, "unit": "%"},
      {"measurement": "AE Proportions Post Treatment: Bruising", "setting": "human subjects; [1]", "value": 72, "unit": "%"},
      {"measurement": "AE Proportions Post Treatment: Edema/Swelling", "setting": "human subjects; [1]", "value": 87, "unit": "%"},
      {"measurement": "AE Proportions Post Treatment: Erythema", "setting": "human subjects; [1]", "value": 27, "unit": "%"},
      {"measurement": "AE Proportions Post Treatment: Induration", "setting": "human subjects; [1]", "value": 23, "unit": "%"},
      {"measurement": "AE Proportions Post Treatment: Nerve Injury", "setting": "human subjects; [1]", "value": 4, "unit": "%"},
      {"measurement": "AE Proportions Post Treatment: Nodule", "setting": "human subjects; [1]", "value": 13, "unit": "%"},
      {"measurement": "AE Proportions Post Treatment: Pain", "setting": "human subjects; [1]", "value": 70, "unit": "%"},
      {"measurement": "AE Proportions Post Treatment: Paresthesia", "setting": "human subjects; [1]", "value": 14, "unit": "%"},
      {"measurement": "AE Proportions Post Treatment: Pruritis", "setting": "human subjects; [1]", "value": 12, "unit": "%"},
      {"measurement": "Injection site adverse events lasting >30 days: Edema/Swelling", "setting": "human subjects; Kybella Label", "value": 20, "unit": "%"},
      {"measurement": "Injection site adverse events lasting >30 days: Induration", "setting": "human subjects; Kybella Label", "value": 13, "unit": "%"},
      {"measurement": "Injection site adverse events lasting >30 days: Injection Site Pain", "setting": "human subjects; Kybella Label", "value": 16, "unit": "%"},
      {"measurement": "Injection site adverse events lasting >30 days: Numbness", "setting": "human subjects; Kybella Label", "value": 42, "unit": "%"},
      {"measurement": "injection-site adverse events (swelling/edema, bruising, pain) per treatment session", "setting": "human subjects; compared to placebo, FIGS. 9A and 9B", "value": "significantly higher percentage of subjects exhibited an adverse reaction"},
      {"measurement": "of said subjects, injection related side effect which lasts for more than 30 days", "setting": "human subjects; subcutaneous injection", "value": "up to 42%"},
      {"measurement": "subjects exhibiting an injection related side effect", "setting": "human subjects; subcutaneous injection", "value": "≤ 87", "unit": "%"}
    ]},
    {"compound": "CC(O)CO", "note": "(centres unmarked) [propylene glycol]", "values": [
      {"measurement": "irritation when injected with polidocanol", "setting": "fat tissue", "value": "non-irritating"},
      {"measurement": "patchy and incomplete fat tissue necrosis relative to the absence of co-solvent", "setting": "fat tissue", "value": "reduced amount of patchy and incomplete fat tissue necrosis"}
    ]},
    {"compound": "polidocanol", "values": [
      {"measurement": "reduction in inguinal fat pad mass", "setting": "inguinal fat pad; concentration 2.0%", "value": 10, "unit": "%"},
      {"measurement": "reduction in inguinal fat pad mass", "setting": "inguinal fat pad; dose 0.5%", "value": 15, "unit": "%"},
      {"measurement": "reduction in inguinal fat pad mass", "setting": "inguinal fat pad; dose 1.25%", "value": 15, "unit": "%"},
      {"measurement": "visible change of inguinal fat pad / body contour", "setting": "inguinal fat pad; in vivo", "value": "externally visible reduction in inguinal fat pad fullness"}
    ]}
  ]
}
